Assay results published in patent US8445461B2, “Pharmaceutical composition for meniere's disease” (Setsuko Takeda, priority 2007, dated 2013).

Experiments:
guinea pigs = assay: Reference Example 7: erythritol or isosorbitol added jelly, conditions of feces and gastrointestinal tract; type: in vivo
Description: As described hereinbefore, erythritol or isosorbitol as saccharides or sugar alcohols added jelly as a thickner were orally administered to 10 guinea pigs (280 to 350 g body weight) as shown in Table 41. The conditions of feces were observed.

[1] = tested on: experimental endolymphatic hydrops; assay: Endolymphatic hydrops decompression effect: IR-L, IR-S and regression lines in the operated ear; type: in vivo, guinea pigs; conditions: for Regression line IR-S vs IR-L: Y-intercept / Regression line IR-S vs IR-L: slope: operated ears; for Regression line IR-S vs IR-L: Y-intercept / Regression line IR-S vs IR-L: slope / IR-L (%) increase ratio of the length of Reissner's membrane / IR-S (%) increase ratio of the cross-sectional area of the scala media: active agent 2.8 g/kg oral; for IR-L (%) increase ratio of the length of Reissner's membrane / IR-S (%) increase ratio of the cross-sectional area of the scala media: operated side
Procedure: The endolymphatic hydrops-decompression effect of saccharides or sugar alcohols was evaluated by assaying as below in triplicate. Firstly, guinea pigs received the surgical obliteration of the endolymphatic sac in the left ear to prepare “experimental model animals with endolymphatic hydrops”. The surgical obliteration of the endolymphatic sac was carried out by burning the extraskeletal portion in the endolymphatic sac with a bipolar electrocoagulator. An endolymphatic sac plays an important role in the absorption of endolymphatic fluid. The inhibition of absorption of endolymphatic fluid was caused by burning the endolymphatic sac to prepare an experimental endolymphatic hydrops. Those hydrops are progressively formed. The size of hydrops becomes constant 2 weeks to month after the surgery and maintained for several months. In detail, see Non-patent Reference 8 for the surgery.
After 1 month, they were divided into 3 groups: Group 2-1 (groups 1-6), 60 animals; Group 2-2 (groups 7-10), 40 animals; and Group 2-3 (groups 11-20), […]. The animals in Group 2-1 received saccharides or sugar alcohols alone (Reference Example 5). The animals in Group 2-2 orally received saccharides or sugar alcohols added polysaccharides. The animals in Group 2-3 received other combinations of saccharides or sugar alcohols added polysaccharides. Animals were sacrificed after the oral administration and the observation and the assessment the gastrointestinal condition, and observed the morphological change of the cochlea mainly in the operated side (left side), in particular of the endolymphatic hydrops decompression effect.
I were obtained left sides of the temporal bones immediately following fixation and kept them in 10% formalin solution for 10 days or more. They were decalcified with 5% trichloroacetic acid and dehydrated with alcohol in increasing concentration, then embedded in paraffin and celloidin. The prepared blocks were cut serially in the horizontal plane. The mid-modiolar sections were stained in hematoxylin and eosin and studied under a light microscope. For the quantitative assessment of changes of the endolymphatic space, the change ratios of the length of Reissner's membrane and the cross-sectional area of the scala media in each turn were measured from the mid-modiolar sections of the cochlea.
From these parameters, the increase ratios (%) of the length of Reissner's membrane (IR-L) and the cross-sectional area (%) of the scala media (IR-S) of a total of four turns were calculated according to the equation as described below:
The increase ratio of the length of Reissner's membrane (IR-L)=100×Σ(Lx−L*x)/ΣL*x (x: first, second, third and fourth turns)
The increase ratio of the cross-section area of the scala media (IR-S)=100×Σ(Sx−S*x)/ΣS*x (x: first, second, third and fourth turns)
Since almost no difference is shown in the regression lines of each group, it cannot be understood that there is the decompression effect of erythritol alone. When endolymphatic hydrops is formed, the cross-sectional area of scala media and the length of Reissner's membrane will increase. It can be assumed from FIG. 1 that there is statistically a primary correlation between both of them in the operated side in the control group. The regression lines are; IR-S (distilled water)=4.011+1.212*IR-L (distilled water); R2=0.987, IR-S (1 hour after)=5.409+1.1*IR-L (1 hour after); R2=0.903, IR-S (2 hours after)=1.125+0.992*IR-L (2 hours after); R2=0.98, IR-S (3 hours after)=2.407+1.309*IR-L (3 hours after); R2=0.974, IR-S (6 hours after)=7.36+1.147*IR-L (6 hours after); R2=0.895, IR-S (12 hours after)=8.089+1.152*IR-L (12 hours after); R2=0.918.
The difference of decompression effect on endolymphatic hydrops depending on dose of pectin added and time-course of the decompression effect can hardly determined by comparing and analyzing the average and standard deviation of IR-L and IR-S in the operated side in each groups. […]

[2] = agent 2.8 g/kg oral + Jelly 0.05 g/kg, 5 animals
[3] = agent 2.8 g/kg oral + Jelly 0.1 g/kg, 5 animals
[4] = agent 2.8 g/kg oral + Jelly 0.15 g/kg, 5 animals
[5] = agent 2.8 g/kg oral, no additive dosage (agent alone)
[6] = alone or with additive, 3 hours after
[7] = alone or with additive, 6 hours after
[8] = alone or with additive, 12 hours after
[9] = alone or with additive, perfusion 3 hours after
[10] = alone or with additive, perfusion 6 hours after
[11] = alone or with additive, perfusion 12 hours after

## OC[C@@H](O)[C@@H](O)CO [Erythritol, erythritol]
Guinea pigs; [2]
  Hardness of feces: Muddy (number of animals): 5
  Hardness of feces: Normal (number of animals): 0
  Hardness of feces: Slightly soft (number of animals): 0
  Hardness of feces: Soft (number of animals): 0
Guinea pigs; [3]
  Hardness of feces: Muddy (number of animals): 5
  Hardness of feces: Normal (number of animals): 0
  Hardness of feces: Slightly soft (number of animals): 0
  Hardness of feces: Soft (number of animals): 0
Guinea pigs; [4]
  Hardness of feces: Muddy (number of animals): 5
  Hardness of feces: Normal (number of animals): 0
  Hardness of feces: Slightly soft (number of animals): 0
  Hardness of feces: Soft (number of animals): 0
Guinea pigs; [5]
  Hardness of feces: Muddy (number of animals): 5
  Hardness of feces: Normal (number of animals): 0
  Hardness of feces: Slightly soft (number of animals): 0
  Hardness of feces: Soft (number of animals): 0
[1]; erythritol 2.8 g/kg alone, E1H to E12H groups (1 to 12 hours after)
  Difference of regression lines from control (ANCOVA test): no significant difference
[1]; [6]
  Regression line IR-S vs IR-L: Y-intercept: 2.407
  Regression line IR-S vs IR-L: slope: 1.309
[1]; [7]
  Regression line IR-S vs IR-L: Y-intercept: 7.36
  Regression line IR-S vs IR-L: slope: 1.147
[1]; [8]
  Regression line IR-S vs IR-L: Y-intercept: 8.089
  Regression line IR-S vs IR-L: slope: 1.152
[1]; 1 hour after
  Regression line IR-S vs IR-L: Y-intercept: 5.409
  Regression line IR-S vs IR-L: slope: 1.1
[1]; 2 hours after
  Regression line IR-S vs IR-L: Y-intercept: 1.125
  Regression line IR-S vs IR-L: slope: 0.992
[1]; [9]
  IR-L (%) increase ratio of the length of Reissner's membrane: 23.2 ± 16.9%
  IR-S (%) increase ratio of the cross-sectional area of the scala media: 32.7 ± 22.4%
[1]; [10]
  IR-L (%) increase ratio of the length of Reissner's membrane: 37.8 ± 24.8%
  IR-S (%) increase ratio of the cross-sectional area of the scala media: 51.4 ± 38.1%
[1]; [11]
  IR-L (%) increase ratio of the length of Reissner's membrane: 37.5 ± 18.7%
  IR-S (%) increase ratio of the cross-sectional area of the scala media: 51.4 ± 22.5%
[1]; perfusion 1 hour after
  IR-L (%) increase ratio of the length of Reissner's membrane: 24.2 ± 20.2%
  IR-S (%) increase ratio of the cross-sectional area of the scala media: 32.1 ± 23.3%
[1]; perfusion 2 hours after
  IR-L (%) increase ratio of the length of Reissner's membrane: 29.4 ± 25.5%
  IR-S (%) increase ratio of the cross-sectional area of the scala media: 30.2 ± 26.3%
